For one assay, the target named is T1, JAK3 (Homo sapiens, UniProt P52333).
T1 construct: endogenous in cells; host or cells: Molt4 (ATCC CRL-1582) and Ramos (ATCC CRL-1596) cell lysate; mixed Molt4/Ramos lysate 1:2
T1 sequence (P52333 1-1124): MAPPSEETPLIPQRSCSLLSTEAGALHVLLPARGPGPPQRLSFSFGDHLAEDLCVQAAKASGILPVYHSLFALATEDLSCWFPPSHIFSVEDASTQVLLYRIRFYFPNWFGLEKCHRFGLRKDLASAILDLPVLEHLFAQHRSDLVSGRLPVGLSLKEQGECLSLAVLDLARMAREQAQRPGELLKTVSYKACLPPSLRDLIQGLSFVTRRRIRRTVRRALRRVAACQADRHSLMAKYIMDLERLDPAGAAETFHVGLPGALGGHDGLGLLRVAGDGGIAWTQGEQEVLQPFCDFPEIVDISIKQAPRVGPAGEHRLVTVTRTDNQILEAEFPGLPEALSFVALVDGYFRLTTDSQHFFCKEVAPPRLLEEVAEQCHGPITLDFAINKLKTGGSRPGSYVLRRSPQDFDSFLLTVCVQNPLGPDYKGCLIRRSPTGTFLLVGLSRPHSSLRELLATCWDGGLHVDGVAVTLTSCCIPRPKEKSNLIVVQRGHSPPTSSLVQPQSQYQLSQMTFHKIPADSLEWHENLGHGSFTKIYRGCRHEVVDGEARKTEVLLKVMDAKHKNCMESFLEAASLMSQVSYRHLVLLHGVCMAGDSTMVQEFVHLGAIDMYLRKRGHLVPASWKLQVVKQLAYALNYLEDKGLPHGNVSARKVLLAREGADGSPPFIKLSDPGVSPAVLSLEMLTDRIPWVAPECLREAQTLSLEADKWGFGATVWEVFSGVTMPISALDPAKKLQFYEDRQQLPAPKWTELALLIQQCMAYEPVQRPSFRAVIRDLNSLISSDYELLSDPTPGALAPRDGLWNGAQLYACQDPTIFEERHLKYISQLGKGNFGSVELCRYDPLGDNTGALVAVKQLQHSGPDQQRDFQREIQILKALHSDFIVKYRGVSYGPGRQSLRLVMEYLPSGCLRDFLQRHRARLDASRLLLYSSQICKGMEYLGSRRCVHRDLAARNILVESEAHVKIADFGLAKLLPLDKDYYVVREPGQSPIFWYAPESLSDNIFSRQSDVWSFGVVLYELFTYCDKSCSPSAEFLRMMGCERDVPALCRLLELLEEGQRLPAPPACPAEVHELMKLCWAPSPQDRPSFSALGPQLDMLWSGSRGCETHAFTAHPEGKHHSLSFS
Briefly: Kinobeads assay, JAK3 (competition binding in cell lysate, dot blot detection). Particulars: mixed Molt4/Ramos lysate. The protocol: (§1) The compounds of the present invention as described in the previous examples were tested in a Kinobeads™ assay as described for ZAP-70 (WO-A 2007/137867). Briefly, test compounds (at various concentrations) and the affinity matrix with the immobilized aminopyrido-pyrimidine ligand 24 were added to cell lysate aliquots and allowed to bind to the proteins in the lysate sample. After the incubation time the beads with captured proteins were separated from the lysate. Bound proteins were then eluted and the presence of JAK2 and JAK3 was detected and quantified using specific antibodies in a dot blot procedure and the Odyssey infrared detection system. Dose response curves for individual kinases were generated and IC50 values calculated. Kinobeads™ assays for ZAP-70 (WO-A 2007/137867) and for kinase selectivity profiling (WO-A 2006/134056) have been previously described.
(§2) 5×DP buffer: 250 mM Tris-HCl pH 7.4, 25% Glycerol, 7.5 mM MgCl2, 750 mM NaCl, 5 mM Na3VO4; filter the 5×DP buffer through a 0.22 μm filter and store in aliquots at −80° C. The 5×DP buffer is diluted with H2O to 1×DP buffer containing 1 mM DTT and 25 mM NaF.
(§3) Stock solutions of test compounds were prepared in DMSO. In a 96 well plate 30 μL solution of diluted test compounds at 5 mM in DMSO were prepared. Starting with this solution a 1:3 dilution series (9 steps) was prepared. For control experiments (no test compound) a buffer containing 2% DMSO was used.
(§4) Molt4 cells (ATCC catalogue number CRL-1582) and Ramos cells (ATCC catalogue number CRL-1596) were grown in 1 L Spinner flasks (Integra Biosciences, #182101) in suspension in RPMI 1640 medium (Invitrogen, #21875-034) supplemented with 10% Fetal Bovine Serum (Invitrogen) at a density between 0.15×10^6 and 1.2×10^6 cells/mL. Cells were harvested by centrifugation, washed once with 1×PBS buffer (Invitrogen, #14190-094) and cell pellets were frozen in liquid nitrogen and subsequently stored at −80° C. Cells were homogenized in a Potter S homogenizer in lysis buffer: 50 mM Tris-HCl, 0.8% NP40, 5% glycerol, 150 mM NaCl, 1.5 mM MgCl2, 25 mM NaF, 1 mM sodium vanadate, 1 mM DTT, pH 7.5. One complete EDTA-free tablet (protease inhibitor cocktail, Roche Diagnostics, 1873580) per 25 mL buffer was added. The material was dounced 10 times using a mechanized POTTER S, transferred to 50 mL falcon tubes, incubated for 30 minutes on ice and spun down for 10 minutes at 20,000 g at 4° C. (10,000 rpm in Sorvall SLA600, precooled). The supernatant was transferred to an ultracentrifuge (UZ)-polycarbonate tube (Beckmann, 355654) and spun for 1 hour at 100.000 g at 4° C. (33.500 rpm in Ti50.2, precooled). The supernatant was transferred again to a fresh 50 mL falcon tube, the protein concentration was determined by a Bradford assay (BioRad) and samples containing 50 mg of protein per aliquot were prepared. The samples were immediately used for experiments or frozen in liquid nitrogen and stored frozen at −80° C.
(§5) Cell lysate (approximately 50 mg protein per plate) was thawed in a water bath at room temperature and then stored on ice. To the thawed cell lysate 1×DP 0.8% NP40 buffer containing protease inhibitors (1 tablet for 25 mL buffer; EDTA-free protease inhibitor cocktail; Roche Diagnostics 1873580) was added in order to reach a final protein concentration of 10 mg/mL total protein. The diluted cell lysate was stored on ice. Mixed Molt4/Ramos lysate was prepared by combining one volume of Molt4 lysate and two volumes of Ramos lysate (ratio 1:2).
(§6) Plates were sealed and incubated for 3 hours in a cold room on a plate shaker (Heidolph tiramax 1000) at 750 rpm. Afterwards the plate was washed 3 times with 230 μL washing buffer (1×DP 0.4% NP40). The filter plate was placed on top of a collection plate (Greiner bio-one, PP-microplate 96 well V-shape, 65120) and the beads were then eluted with 20 μL of sample buffer (100 mM Tris, pH 7.4, 4% SDS, 0.00025% bromophenol blue, 20% glycerol, 50 mM DTT). […]

The next assay addresses T2, JAK2 (Homo sapiens, UniProt O60674).
T2 construct: endogenous in cells; host or cells: Molt4 (ATCC CRL-1582) and Ramos (ATCC CRL-1596) cell lysate; mixed Molt4/Ramos lysate 1:2
Briefly: Kinobeads assay, JAK2 (competition binding in cell lysate, dot blot detection). The following applies: mixed Molt4/Ramos lysate. The method, then:
as §1, §2, §3, §4, §5, §6

SMILES strings stand for the structures. A value given as a limit tells only on which side of the number the result lay.

This is an account of results in patent US20130131043A1, “PYRAZOLE COMPOUNDS AS JAK INHIBITORS” (priority 2010, published 2013).

T2 sequence (O60674 whole entry): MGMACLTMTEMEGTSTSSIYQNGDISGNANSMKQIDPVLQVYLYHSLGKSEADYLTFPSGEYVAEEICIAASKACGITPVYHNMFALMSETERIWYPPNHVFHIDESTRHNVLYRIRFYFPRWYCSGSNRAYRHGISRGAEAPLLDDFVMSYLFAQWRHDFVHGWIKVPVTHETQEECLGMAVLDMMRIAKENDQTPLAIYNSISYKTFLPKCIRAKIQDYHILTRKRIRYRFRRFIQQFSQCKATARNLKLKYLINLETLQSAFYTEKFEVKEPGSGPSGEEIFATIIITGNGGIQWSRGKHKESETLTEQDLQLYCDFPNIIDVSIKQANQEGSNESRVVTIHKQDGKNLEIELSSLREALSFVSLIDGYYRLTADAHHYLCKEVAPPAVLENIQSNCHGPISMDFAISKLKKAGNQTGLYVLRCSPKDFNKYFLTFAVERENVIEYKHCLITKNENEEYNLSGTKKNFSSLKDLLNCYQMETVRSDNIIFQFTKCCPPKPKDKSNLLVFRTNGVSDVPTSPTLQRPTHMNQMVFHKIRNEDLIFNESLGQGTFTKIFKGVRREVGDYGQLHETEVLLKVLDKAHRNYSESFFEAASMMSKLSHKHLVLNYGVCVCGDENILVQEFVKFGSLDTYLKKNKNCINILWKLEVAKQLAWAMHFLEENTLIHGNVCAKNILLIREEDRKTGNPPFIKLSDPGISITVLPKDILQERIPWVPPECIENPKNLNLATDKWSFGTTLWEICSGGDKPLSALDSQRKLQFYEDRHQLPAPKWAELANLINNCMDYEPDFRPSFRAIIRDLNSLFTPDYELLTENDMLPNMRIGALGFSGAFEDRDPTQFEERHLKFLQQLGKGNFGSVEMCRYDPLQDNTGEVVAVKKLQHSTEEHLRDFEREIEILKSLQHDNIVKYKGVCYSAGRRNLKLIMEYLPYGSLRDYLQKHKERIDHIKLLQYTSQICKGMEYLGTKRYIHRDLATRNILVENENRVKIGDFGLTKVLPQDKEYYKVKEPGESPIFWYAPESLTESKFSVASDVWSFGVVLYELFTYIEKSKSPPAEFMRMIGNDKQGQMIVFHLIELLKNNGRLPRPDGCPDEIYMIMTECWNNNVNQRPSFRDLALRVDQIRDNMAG

On to `CC1CCC(n2ncc3cnc(Nc4cnn(C)c4)nc32)C1` (mixture of isomers) [Example 15, N-(1-Methyl-1H-pyrazol-4-yl)-1-(3-methylcyclopentyl)-1H-pyrazolo[3,4-d]pyrimidin-6-amine], for which the IC50 (commonly the midpoint of a concentration-inhibition curve) on JAK3 lay in the range of 100 to 1000 nM; on JAK2, 1 to 10 µM.
The matching figures for `C[C@H]1CCCC[C@@H]1n1ncc2cnc(Nc3cnn(C)c3)nc21` (racemic) [Example 7, Rac-trans-N-(1-methyl-1H-pyrazol-4-yl)-1-(2-methylcyclohexyl)-1H-pyrazolo[3,4-d]pyrimidin-6-amine]: less than 100 nM and 1 to 10 µM.
On the same counts, the results for `C[C@H]1CCCC[C@H]1n1ncc2cnc(Nc3cnn(C)c3)nc21` (racemic) [Example 11, Rac-cis-N-(1-methyl-1H-pyrazol-4-yl)-1-(2-methylcyclohexyl)-1H-pyrazolo[3,4-d]pyrimidin-6-amine] are 100 to 1000 nM and 1 to 10 µM.
On to `C[C@H]1CCC[C@H](n2ncc3cnc(Nc4cnn(C)c4)nc32)C1` (racemic) [Example 19, Rac-trans-N-(1-methyl-1H-pyrazol-4-yl)-1-(3-methylcyclohexyl)-1H-pyrazolo[3,4-d]pyrimidin-6-amine], for which the IC50 was less than 100 nM on JAK3 and 1 to 10 µM on JAK2.
On the same counts, the results for `C[C@H]1CCCC[C@@H]1n1ncc2cnc(Nc3cnn(CCO)c3)nc21` (racemic) [Example 50, Rac-trans-2-(4-((1-(2-methylcyclohexyl)-1H-pyrazolo[3,4-d]pyrimidin-6-yl)amino)-1H-pyrazol-1-yl)ethanol] are less than 100 nM and 1 to 10 µM.
The matching figures for `Cn1cc(Nc2ncc3cnn(CC4CCCN(S(C)(=O)=O)C4)c3n2)cn1` (centres unmarked) [Example 1]: less than 100 nM and 1 to 10 µM.
The matching figures for `Cn1cc(Nc2ncc3cnn(CCCNS(C)(=O)=O)c3n2)cn1` [Example 2, N-(3-(6-(1-methyl-1H-pyrazol-4-ylamino)-1H-pyrazolo[3,4-d]pyrimidin-1-yl)propyl)methanesulfonamide]: 100 to 1000 nM and 1 to 10 µM.
For the compound `Cn1cc(Nc2ncc3cnn(C4CCN(S(C)(=O)=O)CC4)c3n2)cn1` [Example 3, N-(1-methyl-1H-pyrazol-4-yl)-1-(1-(methylsulfonyl)piperidin-4-yl)-1H-pyrazolo[3,4-d]pyrimidin-6-amine], the IC50 on JAK3 fell in the range of 100 to 1000 nM; on JAK2, 1 to 10 µM.
The matching figures for `CS(=O)(=O)N1CCCC(Cn2ncc3cnc(Nc4cnn(CC(F)F)c4)nc32)C1` (centres unmarked) [Example 4, N-(1-(2,2-difluoroethyl)-1H-pyrazol-4-yl)-1-((1-(methylsulfonyl)piperidin-3-yl)methyl)-1H-pyrazolo[3,4-d]pyrimidin-6-amine]: less than 100 nM and 1 to 10 µM.
The matching figures for `Cn1cc(Nc2ncc3cnn(CC4CCCNC4)c3n2)cn1` (centres unmarked) [Example 5, N-(1-methyl-1H-pyrazol-4-yl)-1-(piperidin-3-ylmethyl)-1H-pyrazolo[3,4-d]pyrimidin-6-amine]: 100 to 1000 nM and 1 to 10 µM.
The matching figures for `CN1CCCC(Cn2ncc3cnc(Nc4cnn(C)c4)nc32)C1` (centres unmarked) [Example 6, N-(1-methyl-1H-pyrazol-4-yl)-1-((1-methylpiperidin-3-yl)methyl)-1H-pyrazolo[3,4-d]pyrimidin-6-amine]: less than 100 nM and 1 to 10 µM.
Regarding `Cn1cc(Nc2ncc3cnn(C4CCCCC4)c3n2)cn1` [Example 8, 1-cyclohexyl-N-(1-methyl-1H-pyrazol-4-yl)-1H-pyrazolo[3,4-d]pyrimidin-6-amine], the IC50 at JAK3 is 100 to 1000 nM; on JAK2 it was more than 10 µM.
`Cn1cc(Nc2ncc3cnn(C4CCOCC4)c3n2)cn1` [Example 9, N-(1-methyl-1H-pyrazol-4-yl)-1-(tetrahydro-2H-pyran-4-yl)-1H-pyrazolo[3,4-d]pyrimidin-6-amine]: the IC50 is 100 to 1000 nM at JAK3 and more than 10 µM on JAK2.
